Where two headings read alike, the source gives them in different places.
Assays:
[1] = system: human prostate cancer cells (PC3); experiment: MTT dye reduction viability test, PC3; type: cell-based; settings: for IC50 / viability at 10 µM / viability at 20 µM / viability at 40 µM / viability at 60 µM / viability at 80 µM / viability at 100 µM: Homo sapiens; for IC50: read-out: Cytotoxic activity IC50, PC3; for viability at 10 µM: PC3, 10 µM; for viability at 10 µM / viability at 20 µM / viability at 40 µM / viability at 60 µM / viability at 80 µM / viability at 100 µM: representative MTT result (Table S1 A); for viability at 20 µM: PC3, 20 µM; for viability at 40 µM: PC3, 40 µM; for viability at 60 µM: PC3, 60 µM; for viability at 80 µM: PC3, 80 µM; for viability at 100 µM: PC3, 100 µM, read-out: Cells viability
Procedure: (§1) We have chosen two types of cell culture lines: human prostate cancer cells (PC3) and normal human immortal keratinocyte cells (HaCaT) (Table 1).
(§2) Human prostate cancer cells (PC3) and human immortal keratinocyte cell line from adult human skin (HaCaT) were obtained from American Type Culture Collection (Teddington, UK) and cultured according to its instructions RPMI 1640 (L0490) medium or DMEM (L0102) medium, respectively, in a 95% air and 5% CO2 humidified incubator at 37 °C. Both media (Biowest) were supplemented with 10% fetal bovine serum (FBS), 100 U/mL penicillin and 100 μg/mL streptomycin. 10 mM stock solutions of tested compounds in DMSO were prepared.
(§3) To assess the cells growth inhibition, the MTT dye reduction test was preformed based on the method described by Präbst et al.. Both PC3 and HaCaT cells (1 × 10^3/well) were seeded into 96-well plates and incubated for 24 h to attach to the bottom of the well in appropriate medium (200 μL) and treated with tested compounds (0–100 μM). The medium with compounds was removed after 72 h and MTT (0.5 mg/mL) in fresh growth medium without serum was added to each well. The plates were incubated in dark for 4 h at 37 °C. Then, the solution in each well was removed and refilled with 100 μL DMSO: isopropanol (1:1) to dissolve formazon crystals. The optical density was measured with an UVM 340 (ASYS Hitech GmbH, Austria) microplate reader at 570 nm. Replicates of three wells for each dosage, including vehicle control, were analyzed for each experiment. The experiments were conducted in triplicate. The results are expressed as IC50 values. The value of IC50 was estimated using CompuSyn version 1.0.

[2] = MTT dye reduction viability test, HaCaT; type: cell-based, human; settings: human; for viability at 72 h, 10 µM / viability at 72 h, 20 µM / viability at 72 h, 40 µM / viability at 72 h, 60 µM / viability at 72 h, 80 µM / viability at 72 h, 100 µM: HaCaT, representative MTT result (Table S1 B); for viability at 72 h, 100 µM: read-out: Cells viability
Procedure: as §1, §2, §3

[3] = HaCaT cells (immortal keratinocytes), 72 h exposure, MTT, mean ± SD, read-out: Cytotoxic activity IC50, HaCaT
[4] = HaCaT cells (immortal keratinocytes)

Question: Which results are given for `CCCCCC=CCC=CCCCCCCCC(=O)Oc1ccc2c(c1)C(=O)CC(c1ccccc1)O2` (stereo not shown) [6-Linoleic-Flavanone, 6-hydroxy-flavanone linoleic ester]?
Answer: IC50 ([1]; 72 h exposure, MTT, mean ± SD): 48.3 ± 8.73 µM; viability at 10 µM ([1]; 72 h): 94.7%; viability at 20 µM ([1]; 72 h): 76.5%; viability at 40 µM ([1]; 72 h): 53.3%; viability at 60 µM ([1]; 72 h): 45.4%; viability at 80 µM ([1]; 72 h): 31.2%; viability at 100 µM ([1]; 72 h): 20.2%; IC50 at 72 h [2, 3]: 80 ± 4.75 µM; viability at 72 h, 10 µM [2, 4]: 95.7%; viability at 72 h, 20 µM [2, 4]: 93.8%; viability at 72 h, 40 µM [2, 4]: 86.8%; viability at 72 h, 60 µM [2, 4]: 73.4%; viability at 72 h, 80 µM [2, 4]: 50.3%; viability at 72 h, 100 µM [2, 4]: 34.9%

Question: Which results are given for `CCC=CCC=CCC=CCCCCCCCC(=O)Oc1ccc2c(=O)cc(-c3ccccc3)oc2c1` [7-Linolenic-Flavone, 7-hydroxy-flavone linolenic ester]?
Answer: IC50 ([1]; 72 h exposure, MTT, mean ± SD): > 100 µM; viability at 10 µM ([1]; 72 h): 90.2%; viability at 20 µM ([1]; 72 h): 86.3%; viability at 40 µM ([1]; 72 h): 81.7%; viability at 60 µM ([1]; 72 h): 79.4%; viability at 80 µM ([1]; 72 h): 86.8%; viability at 100 µM ([1]; 72 h): 86.7%; cytotoxic potential in PC3 cells (in words) ([1]; PC3, 0–100 μM, 72 h): no cytotoxic potential; IC50 at 72 h [2, 3]: 45.4 ± 9.2 µM; viability at 72 h, 10 µM [2, 4]: 106%; viability at 72 h, 20 µM [2, 4]: 90.5%; viability at 72 h, 40 µM [2, 4]: 66%; viability at 72 h, 60 µM [2, 4]: 19.4%; viability at 72 h, 80 µM [2, 4]: 15.8%; viability at 72 h, 100 µM [2, 4]: 14.6%

Question: Which viability at 10 µM ([1]; 72 h) does the source give for `O=c1cc(-c2ccccc2)oc2ccc(O)cc12` [Compound 13, 6-Hydroxy-Flavone, reference compound] here?
Answer: 89.4%

Question: And the viability at 20 µM ([1]; 72 h)?
Answer: 87.8%

Question: And the viability at 40 µM ([1]; 72 h)?
Answer: 99%

Question: What about the viability at 60 µM ([1]; 72 h) of the same compound?
Answer: 110%

Question: And the viability at 80 µM ([1]; 72 h)?
Answer: 87%

Question: And the viability at 100 µM ([1]; 72 h)?
Answer: 73.2%

Question: What about the viability at 72 h, 10 µM [2, 4] of the same compound?
Answer: 96.4%

Question: What about the viability at 72 h, 20 µM [2, 4] of the same compound?
Answer: 83.8%

Question: And the viability at 72 h, 40 µM [2, 4]?
Answer: 77.9%

Question: What about the viability at 72 h, 60 µM [2, 4] of the same compound?
Answer: 95.1%

Question: What about the viability at 72 h, 80 µM [2, 4] of the same compound?
Answer: 84.9%

Question: What about the viability at 72 h, 100 µM [2, 4] of the same compound?
Answer: 87.8%

Question: With `COc1cccc2c1C(=O)c1c(O)c3c(c(O)c1C2=O)C[C@@](O)(C(=O)CO)C[C@@H]3O[C@H]1C[C@H](N)[C@H](O)[C@H](C)O1` [doxorubicin, reference compound] as the compound, how does the IC50 ([1]; 72 h) read?
Answer: 0.29 µM

Question: What about the IC50 at 72 h ([2]; Cytotoxic activity IC50, HaCaT) of the same compound?
Answer: 0.31 µM
